Here are results for five compounds from ChEMBL document CHEMBL1143128, “Imidazo[1,2-a]pyridine derivatives as inhibitors of TNF-alpha expression in T cells” (Bioorg Med Chem, 2008).

Test [1] deals with HepG2. Nature of the test: Cytotoxicity against human HepG2 cells after 48 hrs. It is filed as functional. To be noted: HepG2, 48 h.
Test [2] concerns RAW. Nature of the test: Cytotoxicity against mouse RAW […] cells after 48 hrs. Format: functional.
Test [3] has as its system U-937. As to the kind of experiment: Cytotoxicity against human U937 cells after 48 hrs. To be noted: U-937, 48 h. It is filed as functional.
The test system of test [4] is HeLa. Nature of the test: Cytotoxicity against human HeLa S3 cells after 48 hrs. Format: functional.
Test [5] deals with Jurkat. Nature of the test: Cytotoxicity against human Jurkat cells after 48 hrs. Format: functional.
The next test concerns HL-60. As to the kind of experiment: Cytotoxicity against human HL60 cells after 48 hrs. It is filed as functional. To be noted: HL-60, 48 h.
Test [6] deals with Jurkat. As to the kind of experiment: Inhibition of TPA/ionomycin-stimulated human TNFalpha promoter expression in human Jurkat T cells at 55 uM by luciferase reporter gene assay relative to control. It is filed as functional. On the set-up: scale not given: the % may be the effect or the level left. (In general: In a reporter assay the amount or activity of a reporter protein is the signal.)

Test [7] in a line: Cytotoxicity against human COLO320 cells after 48 hrs. It is filed as functional. To be noted: COLO 320, 48 h.
In test [8] the test system is Jurkat. Nature of the test: Inhibition of TPA/ionomycin-stimulated human TNFalpha promoter expression in human Jurkat T cells by luciferase reporter gene assay. Format: functional, cell-based.
In test [9] the test system is U-937. As to the kind of experiment: Inhibition of TPA-stimulated TNFalpha production in human U937 cells. It is filed as functional, cell-based.
Test [10] has as its system HeLa. Nature of the test: Inhibition of IFN-alpha-stimulated GAS/ISRE gene promoter expression in human HeLa S3 cells by SEAP reporter gene assay. It is filed as functional, cell-based.
The subject of test [11] is Jurkat. As to the kind of experiment: Inhibition of TPA-stimulated COX2 gene promoter expression in human Jurkat cells by luciferase reporter gene assay. Format: functional, cell-based.
The test system of test [12] is Jurkat. As to the kind of experiment: Inhibition of TPA-stimulated NF-AT/AP1 gene promoter expression in human Jurkat cells by SEAP reporter gene assay. It is filed as functional, cell-based.
The target of test [13] is Mitogen-activated protein kinase 3 (Homo sapiens) (UniProt P27361). As to the kind of experiment: Inhibition of TPA/ionomycin-induced ERK1 phosphorylation in human Jurkat cells upto 10 ug/ml by Western blotting. It is filed as cell-based. On the technique in general: Immunoblotting shows a protein as a band on a membrane.
Chain of Mitogen-activated protein kinase 3 (Homo sapiens) (P27361 whole entry): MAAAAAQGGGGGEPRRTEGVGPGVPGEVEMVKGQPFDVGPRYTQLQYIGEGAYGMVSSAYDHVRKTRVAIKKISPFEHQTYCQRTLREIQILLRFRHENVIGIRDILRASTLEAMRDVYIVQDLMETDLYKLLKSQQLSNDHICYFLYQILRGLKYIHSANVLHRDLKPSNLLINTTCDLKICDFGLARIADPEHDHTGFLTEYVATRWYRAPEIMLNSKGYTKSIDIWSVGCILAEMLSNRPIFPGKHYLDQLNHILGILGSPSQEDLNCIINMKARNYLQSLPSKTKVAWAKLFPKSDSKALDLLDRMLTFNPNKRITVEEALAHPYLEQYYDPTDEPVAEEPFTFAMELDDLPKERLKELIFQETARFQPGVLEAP
Test [14] addresses Mitogen-activated protein kinase 1 (Homo sapiens) (UniProt P28482). Nature of the test: Inhibition of TPA/ionomycin-induced ERK2 phosphorylation in human Jurkat cells upto 10 ug/ml by Western blotting. Format: cell-based.
Test [15] deals with RAW. As to the kind of experiment: Inhibition of LPS/IFN-gamma-induced iNOS gene expression in mouse RAW 264.7 cells. Format: functional, cell-based.
Test [16] concerns RAW. As to the kind of experiment: Inhibition of LPS/IFN-gamma-induced COX2 gene expression in mouse RAW 264.7 cells. It is filed as functional, cell-based.
The target of test [17] is MAP kinase p38 (Homo sapiens) (UniProt O15264+Q15759+Q16539+P53778). As to the kind of experiment: Inhibition of TPA/ionomycin-induced p38 kinase phosphorylation in human Jurkat cells upto 10 ug/ml by Western blotting. Format: cell-based.
The test system of test [18] is HeLa. As to the kind of experiment: Inhibition of TPA-stimulated AP1 gene promoter expression in human HeLa S3 cells by SEAP reporter gene assay. It is filed as functional, cell-based.
Test [19] relates to Jurkat. Nature of the test: Inhibition of TPA-stimulated NF-kappaB gene promoter expression in human Jurkat cells by SEAP reporter gene assay. It is filed as functional, cell-based.
For test [20], the system named is HepG2. As to the kind of experiment: Inhibition of IL6-stimulated IL6 gene promoter expression in human HepG2 cells by SEAP reporter gene assay. Format: functional, cell-based.

pIC50: −log10 of the molar value. Converted amounts (≈) assume the structure as drawn. The source made the active and inactive calls. No cut-off for these calls is given here.

Chain of Mitogen-activated protein kinase 1 (Homo sapiens) (P28482 whole entry): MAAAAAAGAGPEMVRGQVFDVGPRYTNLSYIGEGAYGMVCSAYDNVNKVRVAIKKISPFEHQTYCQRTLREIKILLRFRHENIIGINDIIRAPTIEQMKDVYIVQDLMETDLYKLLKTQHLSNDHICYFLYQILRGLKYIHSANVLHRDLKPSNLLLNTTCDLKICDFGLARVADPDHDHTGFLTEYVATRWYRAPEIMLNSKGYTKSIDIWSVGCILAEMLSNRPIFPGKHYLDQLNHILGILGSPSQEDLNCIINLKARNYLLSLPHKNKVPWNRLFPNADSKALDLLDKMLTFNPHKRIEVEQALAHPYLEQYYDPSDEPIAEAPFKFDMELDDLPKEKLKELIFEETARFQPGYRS

In the case of `CCCCCCCCCCCC(=O)[C@]1(O)C[C@H](C(=O)OCC)C(C(=O)OCC)=C2N(Cc3ccccc3)CCN21`, the CC50 came to 50 µg/mL (≈ 89.8 µM) with HepG2 [1]; 5 µg/mL (≈ 8.98 µM) with RAW [2]; 10 µg/mL (≈ 18 µM) with U-937 [3]; 10 µg/mL (≈ 18 µM) in the test on HeLa [4]; 10 µg/mL (≈ 18 µM) with Jurkat [5]; 10 µg/mL (≈ 18 µM) in the test on HL-60. The CC50 in test [7] came to 10 µg/mL (≈ 18 µM). Also, the CC90 in the test on RAW [2] was 25 µg/mL (≈ 44.9 µM); in the test with U-937 [3] it was 25 µg/mL (≈ 44.9 µM); in the test on HeLa [4] it was 50 µg/mL (≈ 89.8 µM); in the test with Jurkat [5] it was 50 µg/mL (≈ 89.8 µM); in the test with HL-60, 25 µg/mL (≈ 44.9 µM); in test [7], greater than 50 µg/mL. Moreover, the Activity in the test with Jurkat [6] is 25%. The compound also showed a pIC50 in the test with Jurkat [8] of 5.02.

Compound `CCOC(=O)/C=C1\NCCN1Cc1ccccc1` displayed an IC50 with U-937 [9] of 10 µg/mL.

With `CCCCCCCCCCCC(=O)[C@]1(O)C[C@H](C(=O)OC)C(C(=O)OCC)=C2N(Cc3ccccc3)CCN21`, the half-maximal cytotoxic concentration (CC50) is 50 µg/mL (≈ 92.1 µM) in the test on HepG2 [1]; 5 µg/mL (≈ 9.21 µM) in the test with RAW [2]; 10 µg/mL (≈ 18.4 µM) in the test on U-937 [3]; 10 µg/mL (≈ 18.4 µM) in the test on HeLa [4]; 10 µg/mL (≈ 18.4 µM) with Jurkat [5]; 10 µg/mL (≈ 18.4 µM) in the test with HL-60. In test [7], this compound registered a CC50 of 10 µg/mL (≈ 18.4 µM). The pIC50 in the test on HeLa [10] is 5.34; in the test on Jurkat [11], 5.34; with Jurkat [12] it was 5.34; in the test on U-937 [9], 5.34; with HeLa [18], 5.34; with Jurkat [8] it was 5.44. The pIC50 with Jurkat [19] was 5.34; in the test with HepG2 [20], 4.74. Also, the result (in test [13]; in test [14]; in the test with RAW [15]; in the test on RAW [16]; in test [17]) was inactive. The CC90 was determined as 25 µg/mL (≈ 46.1 µM) in the test with RAW [2]; 25 µg/mL (≈ 46.1 µM) in the test on U-937 [3]; 25 µg/mL (≈ 46.1 µM) in the test on HeLa [4]; 50 µg/mL (≈ 92.1 µM) in the test with Jurkat [5]; 25 µg/mL (≈ 46.1 µM) in the test on HL-60; 50 µg/mL (≈ 92.1 µM) in test [7].

`CCCCCCCCCCCC(=O)C(=O)/C=C/C(=O)O`: the outcome in the test on Jurkat [8] was inactive.

Turning to `CCCCCCCCCCCC(=O)[C@]1(O)C[C@H](C(=O)O)C(C(=O)OCC)=C2N(Cc3ccccc3)CCN21`, the CC50 in the test with HepG2 [1] is greater than 50 µg/mL; in the test with RAW [2], 10 µg/mL (≈ 18.9 µM); in the test with U-937 [3] it was 10 µg/mL (≈ 18.9 µM); in the test with HeLa [4], 25 µg/mL (≈ 47.3 µM); with Jurkat [5], 10 µg/mL (≈ 18.9 µM); in the test on HL-60, 10 µg/mL (≈ 18.9 µM). Moreover, the CC50 in test [7] came to 10 µg/mL (≈ 18.9 µM). The CC90 in the test on RAW [2] came out at 50 µg/mL (≈ 94.6 µM); in the test on U-937 [3] it was 25 µg/mL (≈ 47.3 µM); in the test with Jurkat [5] it was 50 µg/mL (≈ 94.6 µM); with HL-60, 50 µg/mL (≈ 94.6 µM); in test [7], 50 µg/mL (≈ 94.6 µM). Also, in the test with Jurkat [8], the pIC50 is 5.02.

Usually CC50 stands for the concentration at which the toxic effect on the cells reaches its halfway point. As usually defined, the pIC50 is −log10 of the IC50, conventionally taken in molar units. Usually IC50 stands for the concentration that inhibits the measured activity by half.
